According to patent US20260309717A1, “PROXIMITY INDUCING SYSTEM AND USES THEREOF” (SORBONNE UNIVERSITE, priority 2022, published 2026):

How the values were obtained:
Format in all cases: cell-based
[1] = molecular target: T1, mCherry-^FIREtag / ^FIREmate-ECFP-Cb5 (Halorhodospira halophila, UniProt P16113, A30V/C69G/D97P/F96I, form not given/G21E/G25R/K17N/M100R/M109L/Q41L/Q99S/S72T/T101G/V83A/Y94W/Y98T); assay: Recruitment of cytoplasmic protein to the endoplasmic reticulum, HeLa cells; conditions: 10 μM
T1 construct: FIREmate-ECFP-Cb5(100-134) and mCherry-FIREtag in HeLa cells
T1 sequence (P16113 1-114 A30V/C69G/D97P/F96I/G21E/G25R/K17N/M100R/M109L/Q41L/Q99S/S72T/T101G/V83A/Y94W/Y98T): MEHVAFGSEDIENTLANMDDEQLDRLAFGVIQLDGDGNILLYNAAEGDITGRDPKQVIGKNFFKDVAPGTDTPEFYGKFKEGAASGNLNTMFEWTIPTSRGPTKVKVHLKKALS
Procedure: FIGS. 7A-E illustrate the recruitment of cytoplasmic proteins to the endoplasmic reticulum with the proximity inducing system described herein. FIG. 7A is a representation of the experimental design wherein HeLa cells co-expressing mCherry-^FIREtag and ^FIREmate-ECFP-Cb5 were treated with 10 μM of match (either HBR-2,5DM or HMBR), and imaged by time-lapse confocal microscopy. FIGS. 7B-C are graphs showing the temporal evolution of the FIRE signal detected upon addition at 0 min of HBR-2,5DM (match1-7C) or HMBR (match2-7D). Data represents the mean values±SD of 17 cells from n=3 independent experiments (7B, D), or of 18 cells from n=3 independent experiments (7C, E). FIGS. 7D-E are sets of representative confocal micrographs of cells before (0 min) and after (5 min) addition of HBR-2,5DM (match1-7D) or HMBR (match2-7E) (mCherry: ex/em 561/606-675 nm; FIRE: ex/em 488/508-570 nm; ECFP: ex/em 445/455-499 nm). […] Scale bars are 20 μm.
(§1) The confocal micrographs were acquired on a Zeiss LSM 980 Laser Scanning Microscope equipped with a plan apochromat 63x/1.4 NA oil immersion objective. ZEN software was used to collect the data. The images were analyzed using Icy (2.4.0.0) and Fiji (Image J). In short, to track fluorescence signal in a specific organelle, a ROI (region of interest) was determined by masking the signal in the ECFP (Enhanced Cyan Fluorescent Protein) channel with the plug-in HK-means with the following parameters: intensity class equals 100, minimum object size (pixels or px) equals 500, maximum object size (px) equals 1500-3000. The signal intensity of the ROI was tracked over time for each channel by using plug-in Active Contours. The background signal was subtracted. Data were processed using GraphPad Prism v9.3.0.
(§2) To further evaluate the scope of the proximity inducing system described herein and show its versatility, ^FIREmate was anchored at the membrane of various organelles or cellular structures so that ^FIREmate faced the cytosol. ^FIREmate was thus fused: • to the N-terminus of the transmembrane domain (amino acid residues at positions 3131-3259) of Giantin for location at the cis-medial rims of the Golgi apparatus (FIG. 6A), • to the N-terminus of the transmembrane domain (amino acid residues at positions 100-134) of the cytochrome b5 (Cb5) for location at the endoplasmic reticulum membrane (FIG. 7A), and • to the C-terminus of the Lyn11 inner membrane targeting sequence for location at the plasma membrane (FIG. 8A).
(§3) For each construct, an ECFP was inserted between ^FIREmate and the other protein domain/sequence to monitor the localization of the resulting fusion protein (blue fluorescence). Each fusion protein was co-expressed in mammalian cells (HeLa cells or HEK293 cells as indicated) together with mCherry-^FIREtag (red fluorescence). […]

[2] = molecular target: T2, ^FIREmate and ^FIREtag (fused to FRB and FKBP) (Halorhodospira halophila, UniProt P16113, A30V/C69G/D97P/F96I, form not given/G21E/G25R/K17N/M100R/M109L/Q41L/Q99S/S72T/T101G/V83A/Y94W/Y98T); assay: Flow cytometry of fluorescent ternary assembly formation in HEK293T cells co-expressing FKBP-^FIREtag and FRB-^FIREmate
T2 sequence (P16113 1-114 A30V/C69G/D97P/F96I/G21E/G25R/K17N/M100R/M109L/Q41L/Q99S/S72T/T101G/V83A/Y94W/Y98T): T1 sequence (P16113 1-114 A30V/C69G/D97P/F96I/G21E/G25R/K17N/M100R/M109L/Q41L/Q99S/S72T/T101G/V83A/Y94W/Y98T)
Procedure: FIGS. 2A and 2B are graphs illustrating the fluorogen-dependent interaction between the two polypeptides ^FIREmate and ^FIREtag. The graphs show the normalized average fluorescence detected from about 50,000 HEK293T cells co-expressing the FK506-binding protein (FKBP) fused to ^FIREtag and the FKBP-rapamycin-binding domain of mammalian target of rapamycin (FRB) fused to ^FIREmate treated without (triangles) or with (squares) 500 nM of rapamycin, and with 1, 5, 10, 25 or 50 μM of HBR-2,5DM (2A) or HMBR (2B). Data represent the mean values±SD of three independent experiments.
The formation of a fluorescent ternary assembly was assessed by flow cytometry in HEK293 cells expressing ^FIREmate and ^FIREtag fused to the C-termini of FKBP (FK506-binding protein) and FRB (FKBP-rapamycin-binding domain of mammalian target of rapamycin), […]. FKBP and FRB are able to dimerize upon addition of rapamycin. Treatment of the HEK293 cells with rapamycin is thus expected to induce the dimerization of FKBP and FRB, and subsequently to induce proximity between ^FIREtag and ^FIREmate.

[3] = molecular target: T3, mCherry-^FIREtag / Lyn11-ECFP-^FIREmate (Halorhodospira halophila, UniProt P16113, A30V/C69G/D97P/F96I, form not given/G21E/G25R/K17N/M100R/M109L/Q41L/Q99S/S72T/T101G/V83A/Y94W/Y98T); assay: Recruitment of cytoplasmic protein to the plasma membrane, HEK293 cells; conditions: 10 μM
T3 construct: Lyn11-ECFP-FIREmate and mCherry-FIREtag in HEK293 cells
T3 sequence (P16113 1-114 A30V/C69G/D97P/F96I/G21E/G25R/K17N/M100R/M109L/Q41L/Q99S/S72T/T101G/V83A/Y94W/Y98T): T1 sequence (P16113 1-114 A30V/C69G/D97P/F96I/G21E/G25R/K17N/M100R/M109L/Q41L/Q99S/S72T/T101G/V83A/Y94W/Y98T)
Procedure: FIGS. 8A-E illustrate the recruitment of cytoplasmic proteins to the plasma membrane with the proximity inducing system described herein. FIG. 8A is a representation of the experimental design wherein HEK293 cells co-expressing mCherry-^FIREtag and Lyn11-ECFP-^FIREmate were treated with 10 μM of match (either HBR-2,5DM or HMBR), and imaged by time-lapse confocal microscopy. FIGS. 8B-C are graphs showing the temporal evolution of the FIRE signal detected upon addition at 0 min of HBR-2,5DM (match1-8B) or HMBR (match2-8C). Data represents the mean values±SD of 22 cells from n=3 independent experiments (8B, D), or of 30 cells from n=3 independent experiments (8C, E). FIGS. 8D-E are sets of representative confocal micrographs of cells before (0 min) and after (5 min) addition of HBR-2,5DM (match1-8D) or HMBR (match2-8E) (mCherry: ex/em 561/606-675 nm; FIRE: ex/em 488/508-570 nm; ECFP: ex/em 445/455-499 nm). […] Scale bars are 20 μm.
as §1, §2, §3

**Q.** With `Cc1cc(/C=C2\SC(=S)NC2=O)c(C)cc1O` [HBR-2,5DM, (Z)-5-(4-hydroxy-2,5-dimethylbenzylidene)-2-thioxo-1,3-thiazolidin-4-one] as the compound, how does the “FIRE signal at the endoplasmic reticulum” value [1] read?
**A.** simultaneous appearance of green fluorescence

**Q.** What about the “translocation of mCherry-^FIREtag to the endoplasmic reticulum” value [1] of the same compound?
**A.** rapid translocation of mCherry-^FIREtag to the organelle

**Q.** And the “dimerization of FKBP and FRB (induced proximity)” value ([2]; absence of rapamycin)?
**A.** able to induce the dimerization of FKBP and FRB

**Q.** And the “formation of a ternary fluorescent assembly” value ([2]; fluorogen 1, 5, 10, 25 or 50 μM, HEK293 cells)?
**A.** induced the formation of a ternary fluorescent assembly at all tested fluorogen concentrations

**Q.** And the “dependence of ternary fluorescent assembly formation on rapamycin (initial proximity)” value ([2]; with or without 500 nM rapamycin, fluorogen 1-50 μM)?
**A.** regardless of the presence or absence of rapamycin

**Q.** And the “FIRE signal at the plasma membrane” value [3]?
**A.** simultaneous appearance of green fluorescence

**Q.** What about the “translocation of mCherry-^FIREtag to the plasma membrane” value [3] of the same compound?
**A.** rapid translocation of mCherry-^FIREtag to the organelle
